Test results published in ChEMBL document CHEMBL6114961, “Novel isoxazole thiophene-containing compounds active against Mycobacterium tuberculosis” (Bioorg Med Chem Lett, 2025).
Values after ≈ are worked out from the molar mass of the structure shown.

Columns and labels:
Format in all cases: functional
[1] = system: Mycobacterium tuberculosis; experiment: Antituberculosis activity against Mycobacterium tuberculosis sCHN240 mutant CR5 strain assessed as reduction in bacterial growth
[2] = system: Mycobacterium tuberculosis; experiment: Antituberculosis activity against Mycobacterium tuberculosis sCHN240 mutant CR2 strain assessed as reduction in bacterial growth
[3] = system: Mycobacterium tuberculosis; experiment: Antituberculosis activity against Mycobacterium tuberculosis sCHN240 mutant CR6 strain assessed as reduction in bacterial growth
[4] = system: Mycobacterium tuberculosis; experiment: Antituberculosis activity against Mycobacterium tuberculosis sCHN240 mutant CR3 strain assessed as reduction in bacterial growth
[5] = system: Mycobacterium tuberculosis; experiment: Antituberculosis activity against Mycobacterium tuberculosis sCHN240 mutant CR1 strain assessed as reduction in bacterial growth
[6] = system: Mycobacterium tuberculosis; experiment: Antituberculosis activity against Mycobacterium tuberculosis Rv1625c mutant assessed as reduction in bacterial growth measured after 7 days using 7H9 broth by Alamar blue staining based analysis; details: time 7 day

## Cn1ncnc1CC(=O)N1CCC(c2nc(-c3ccc(Cl)c(Cl)c3)no2)CC1
[1]
  MIC90: >20 µM
[2]
  MIC90: >20 µM
[3]
  MIC90: >20 µM
[4]
  MIC90: >20 µM
[5]
  MIC90: >20 µM

## O=S(=O)(Nc1cc(-c2ccsc2)no1)c1ccccc1F
[6]
  MIC90: 19.9 µM (≈ 6.45 µg/mL)
